# Literature values in US20150104527A1, “AQUEOUS IONIC SOLUTION CONTAINING SEAWATER AND AT LEAST ONE COMPOUND THAT IS ORIGINALLY IMMISCIBLE WITH SEA WATER” (LABORATOIRE DE LA MER, priority 2011, published 2015).
# How the values were obtained:
# [1] = test system: human neutrophiles; settings: even at low concentration; Boston et al, 2003
# [2] = test system: nasal mucus membrane; settings: observed in patients even for short use; Graf P et al, 1999
substance,measurement,setting,value
benzalkonium chloride,toxicity for human neutrophiles,[1],toxic
same,effect on the nasal mucus membrane,[2],deleterious effects
